The structures appear in SMILES notation. Values after ≈ are worked out from the molar mass of the structure shown.

The term IC50 denotes the concentration that inhibits the measured activity by half.

The subject of this assay is P388. Put plainly: Cytotoxicity against mouse P388 cells. Type of assay: functional, cell-based.
With `CC(C)[C@H]1OC(=O)C=C2[C@@]13O[C@@H]3[C@H]1OC(=O)[C@@]3(C)C[C@H](O)C[C@@]2(C)[C@@H]13`, half-maximal inhibition (IC50) required 0.06 µg/mL (≈ 0.172 µM). The same measure for `CC(C)[C@H]1OC(=O)C=C2C1=C[C@H]1OC(=O)[C@@]3(C)C[C@H](O)C[C@@]2(C)[C@@H]13`: 0.06 µg/mL (≈ 0.181 µM). The same measure for `CC(C)c1oc(=O)cc2c1[C@@H](O)[C@H]1OC(=O)[C@@]3(C)C[C@H]4O[C@H]4[C@@]2(C)[C@@H]13`: 0.65 µg/mL (≈ 1.88 µM); for `CC(C)c1oc(=O)cc2c1[C@@H](O)[C@H]1OC(=O)[C@@]3(C)[C@@H](O)[C@H]4O[C@H]4[C@@]2(C)[C@@H]13` [NAGILACTONE C]: 0.33 µg/mL (≈ 0.911 µM). The same measure for `C=C[C@H]1OC(=O)C=C2C1=C[C@H]1OC(=O)[C@]3(C)[C@H]1[C@]2(C)[C@H]1O[C@H]1[C@@H]3O` [PODOLACTONE E]: under 0.01 µg/mL.

The record behind these values is ChEMBL document CHEMBL1158988, “Cytotoxic norditerpene lactones from Ileostylus micranthus” (J Nat Prod, 1991).
